Measured values reported in patent publication US20230264009A1, “DISINFECTING CAP KIT FOR LUER ACCESS DEVICES” (SterileCare Inc., priority 2022, published 2023).

What was measured:
[1] = tested on: MRSA ON184; assay: MBC/MFC determination; format: cell-based, Staphylococcus aureus; settings: alone
Protocol: (§1) An assay was made using a minimum inhibitory concentration (MIC) and minimum bactericidal concentration (MBC) and minimum fungicidal concentration (MFC) determination. The MIC was determined by the micro broth dilution method in 96-well plates. Serial two-fold dilutions of tetrasodium EDTA (from 2% to 0.015%), ethanol (from 50% to 0.1%) and chlorhexidine HCl (from 100 µg/mL to 0.025 µg/mL) were prepared in MH broth with a final volume of 90 µL per well. A 10 µL containing 1 × 10^5 bacterial cells or 2 × 10^3 fungal cells were added to each well. The inoculated plates were covered with a lid, sealed with Parafilm, and incubated for 24 h at 37° C. with slight rocking on a tilting platform shaker. After incubation, the optical density at 600 nm (OD 600 ) of the cultures in each well was measured using an xMark™ Microplate Absorbance Spectrophotometer (Bio-Rad). […] MBCs and MFCs were determined by transferring 100 µL from each well with no apparent growth onto appropriate agar plates, followed by incubation for 24 h at 37° C.

[2] = tested on: C. albicans ON47 biofilm; assay: MBEC Assay, 48-h biofilm, 24 h exposure; format: cell-based, Candida albicans
Protocol: A biofilm cultivation cell composition was provided. This fifth composition was created using an MBEC Assay® biofilm inoculator, consisting of a polystyrene lid with 96 downward-protruding pegs and a corresponding base used to grow biofilms. A standardized inoculum was diluted in an appropriate biofilm growth medium to achieve a viable cell count of 1.5 × 10^6 CFU/mL of bacterial cells or […] CFU/mL of fungal cells. Then, 150 µL of this inoculum was transferred into each appropriate well, and the peg lids were inserted into the microtiter plates. The plates were sealed with Parafilm and were incubated at optimum temperature for 48 h with slight rocking for bacteria and shaking at 200 rpm for fungal strains. After incubation, the peg lid was removed from the base and rinsed twice with sterile phosphate-buffered saline (PBS) for 2 min to remove loosely attached non-sessile cells. Before the antimicrobial challenge, the pegs in column 1 (n = 8) were considered the biofilm growth control; these pegs were removed from the lids, placed into 200 µL of recovery medium, and analyzed for starting biofilm cell numbers as described below. […] MBEC values were determined as the minimum concentration of antimicrobials that yielded a viable cell count at or lower than the 125 CFU/mL detection limit.

[3] = tested on: Pseudomonas aeruginosa SK1 biofilm; assay: FBEC index, checkerboard dilution on biofilms; format: cell-based; settings: P. aeruginosa SK1 biofilm
Protocol: (§3) In step (4), microtiter plates are incubated at 37° C. for 24 h. then (6), after incubation, the bacterial and fungal cells were dislodged from the pegs into the recovery medium described above.
(§4) Three 10-µL aliquots, for a total of 30 µL from each well of recovery medium, were spotted on MH agar plates and incubated for 24 h at 37° C. […] The FBEC determination is a modification of the FICI.

[4] = tested on: C. albicans ON47; assay: MBC/MFC determination; format: cell-based, Candida albicans; settings: alone
Protocol: as §1

[5] = tested on: Stenotrophomonas maltophilia ON17; assay: MIC, micro broth dilution; format: cell-based; settings: alone; S. maltophilia ON17; 24 h
Protocol: as §1

[6] = tested on: Staphylococcus epidermidis ON170; assay: MIC, micro broth dilution; format: cell-based; settings: alone; S. epidermidis ON170; 24 h
Protocol: as §1

[7] = tested on: Pseudomonas aeruginosa SK1; assay: MIC, micro broth dilution; format: cell-based; settings: alone; P. aeruginosa SK1; 24 h
Protocol: as §1

[8] = tested on: Candida albicans SK4b; assay: MIC, micro broth dilution; format: cell-based; settings: alone; C. albicans SK4b; 24 h
Protocol: as §1

[9] = tested on: Proteus mirabilis ON153; assay: MIC, micro broth dilution; format: cell-based; settings: alone; P. mirabilis ON153; 24 h
Protocol: as §1

[10] = tested on: Serratia marcescens SK2; assay: MIC, micro broth dilution; format: cell-based; settings: alone; S. marcescens SK2; 24 h
Protocol: as §1

[11] = tested on: Staphylococcus aureus ON89; assay: MIC, micro broth dilution; format: cell-based; settings: alone; S. aureus ON89; 24 h
Protocol: as §1

[12] = tested on: Escherichia coli ON29; assay: MIC, micro broth dilution; format: cell-based; settings: alone; E. coli ON29; 24 h
Protocol: as §1

[13] = tested on: MRSA ON184; assay: Checkerboard titration, FMCI; format: cell-based, Staphylococcus aureus
Protocol: as §1
A fourth composition and solution included tetrasodium EDTA with ethanol or chlorhexidine HCl. This fourth composition and solution were created using checkerboard titration methods using micro broth dilution in 96-well microtiter plates. The concentrations of antimicrobials used were based on previously determined MIC values. Briefly, 200 µL of two-fold dilutions of tetrasodium EDTA and ethanol or chlorhexidine HCl were prepared in MH or MH II broth with standardized cell suspension. […] Microtiter plates were incubated at 37° C. for 24 h, and the results were analyzed. Each test was performed in duplicate and included a growth control without adding any antimicrobials.

[14] = tested on: Proteus mirabilis ON153 biofilm; assay: FBEC index, checkerboard dilution on biofilms; format: cell-based; settings: P. mirabilis ON153 biofilm
Protocol: as §3, §4

[15] = tested on: C. albicans ON47; assay: MIC, micro broth dilution; format: cell-based, Candida albicans; settings: alone, 24 h
Protocol: as §1

[16] = tested on: E. coli SK2; assay: MIC, micro broth dilution; format: cell-based, Escherichia coli; settings: alone, 24 h
Protocol: as §1

[17] = tested on: Escherichia coli SK2 biofilm; assay: MBEC Assay, 48-h biofilm, 24 h exposure; format: cell-based; settings: E. coli SK2
Protocol: (§2) A biofilm cultivation cell composition was provided. This fifth composition was created using an MBEC Assay® biofilm inoculator, consisting of a polystyrene lid with 96 downward-protruding pegs and a corresponding base used to grow biofilms. A standardized inoculum was diluted in an appropriate biofilm growth medium to achieve a viable cell count of 1.5 × 10^6 CFU/mL of bacterial cells or […] CFU/mL of fungal cells. Then, 150 µL of this inoculum was transferred into each appropriate well, and the peg lids were inserted into the microtiter plates. The plates were sealed with Parafilm and were incubated at optimum temperature for 48 h with slight rocking for bacteria and shaking at 200 rpm for fungal strains. After incubation, the peg lid was removed from the base and rinsed twice with sterile phosphate-buffered saline (PBS) for 2 min to remove loosely attached non-sessile cells. Before the antimicrobial challenge, the pegs in column 1 (n = 8) were considered the biofilm growth control; these pegs were removed from the lids, placed into 200 µL of recovery medium, and analyzed for starting biofilm cell numbers as described below. The rinsed pegs were placed into new 96-well plates containing two-fold dilutions of antimicrobials such as tetrasodium EDTA (4 %-0.0125%), ethanol (100%-0.2%), and chlorhexidine HCl (100 µg/mL-0.4 µg/mL) in 200 µL of suitable biofilm growth medium per well and incubated at optimum temperature for 24 h. After the antimicrobial challenge, the pegs were rinsed twice with sterile PBS for 2 min and placed into a new 96-well plate containing 200 µL of recovery medium. The recovery plates were sealed with Parafilm, and biofilm cells were dislodged from the pegs by sonication for 30 min with a Branson 3510 bath sonicator. The biofilm cells in the recovery medium were serially diluted, and a drop dilution assay was performed to enumerate the viable cells. MBEC values were determined as the minimum concentration of antimicrobials that yielded a viable cell count at or lower than the 125 CFU/mL detection limit.

[18] = tested on: Proteus mirabilis ON153 biofilm; assay: MBEC Assay, 48-h biofilm, 24 h exposure; format: cell-based; settings: P. mirabilis ON153
Protocol: as §2

[19] = tested on: Pseudomonas aeruginosa SK1 biofilm; assay: MBEC Assay, 48-h biofilm, 24 h exposure; format: cell-based; settings: P. aeruginosa SK1
Protocol: as §2

[20] = tested on: Staphylococcus aureus ON89 biofilm; assay: MBEC Assay, 48-h biofilm, 24 h exposure; format: cell-based; settings: S. aureus ON89
Protocol: as §2

[21] = tested on: Staphylococcus epidermidis SK9 biofilm; assay: MBEC Assay, 48-h biofilm, 24 h exposure; format: cell-based; settings: S. epidermidis SK9
Protocol: as §2

[22] = tested on: Candida albicans SK4b biofilm; assay: MBEC Assay, 48-h biofilm, 24 h exposure; format: cell-based; settings: C. albicans SK4b
Protocol: as §2

[23] = tetrasodium EDTA + chlorhexidine HCl

O=C([O-])CN(CCN(CC(=O)[O-])CC(=O)[O-])CC(=O)[O-].[Na+].[Na+].[Na+].[Na+] [EDTA, tetrasodium EDTA]
MBC/MFC [1]: 2 % w/v | MBEC [2]: 1 % w/v | FBEC (concentration in combination) [3, 23]: 0.25 % w/v | FBEC (concentration in combination) ([3]; tetrasodium EDTA + ethanol): 0.125 % w/v | MBC/MFC [4]: 1 % w/v | MIC [5]: 0.063 % w/v | MIC [6]: 0.063 % w/v | MIC [7]: 0.25 % w/v | MIC [8]: 1 % w/v | MIC [9]: 1 % w/v | MIC [10]: 2 % w/v | MIC [11]: 0.063 % w/v | MIC [12]: 0.5 % w/v | Concentration in combination giving FMCI [13, 23]: 0.125 % w/v | Concentration in combination giving FMCI ([13]; tetrasodium EDTA + ethanol): 0.031 % w/v | FBEC (concentration in combination) [14, 23]: 0.125 % w/v | FBEC (concentration in combination) ([14]; tetrasodium EDTA + ethanol): 0.125 % w/v | MIC [15]: 1 % w/v | MIC [16]: 0.5 % w/v | MBEC [17]: 2 % w/v | MBEC [18]: 4 % w/v | MBEC [19]: 4 % w/v | MBEC [20]: 4 % w/v | MBEC [21]: 2 % w/v | MBEC [22]: 1 % w/v
